Experimental data taken from patent US20250195528A1, “DOSE REGIMEN OF VICASINABIN” (Hoffmann-La Roche Inc., priority 2022, published 2025).
Several values for one entry are separate records, joined by “and”; a condition that tells them apart may be missing. Identical values can stand only once. Entries after “also recorded” stand apart in the source; their conditions may differ. Like-named read-outs stand apart in the source and are kept apart here.

How the values were obtained:
[1] = Study BP40387 Part 1 (SAD) pharmacokinetics, healthy participants; format: in vivo, human; settings: for Tmax / half-life / AUC / Cmax: both sexes, human, plasma
Protocol: In Part 1 (SAD) of Study BP40387, in the fasted state, RO6868847 was overall rapidly absorbed; however, the Tmax appeared to shift with increasing dose. Individual Tmax ranged between 1 to 6 hours at 100 mg and 300 mg RO6868847.

[2] = Study BP40387 Part 3 (MAD) pharmacokinetics, once daily for 14 days;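 also: phase I trial BP40387 in healthy male and female volunteers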
Protocol: Study BP40387 was a Phase I study that was conducted in healthy male and female participants, and included 5 parts. Part 1 (SAD) consisted of an adaptive, single-ascending-dose, investigator/participant-blind, randomized, placebo-controlled, parallel study to investigate the safety, tolerability, and pharmacokinetics of RO6868847. Part 2 (FE), was designed as an open-label, randomized, two-period crossover, single dose investigation of the effect of food on the pharmacokinetics of RO6868847. Part 3 (MAD), was an adaptive, multiple-ascending-dose, investigator/participant-blind, randomized, placebo-controlled, parallel study to investigate the safety, tolerability, and pharmacokinetics of RO6868847 administered once-daily for 14 days. Part 4 (DDI-CYP Induction), was a non-randomized, open-label, fixed-sequence, two-period study to explore RO6868847-mediated CYP induction at 300 mg administered once-daily for 14 days, using midazolam, repaglinide, and bupropion as probe substrates for CYP3A, CYP2C8, and CYP2B6, respectively. […] Overall, in Part 1 (SAD), a total of 33 healthy participants received single oral doses of RO6868847 ranging between 0.75 mg and 300 mg, and 12 participants received placebo under fasting conditions. In Part 2 (FE), 8 participants received a single oral dose of 100 mg RO6868847 once after an overnight fast of at least 10 hours and once within 30 minutes after starting a high-calorie, high-fat breakfast. In Part 3 (MAD), a total of 30 participants received multiple oral doses of 6 mg to 300 mg RO6868847 QD for 14 days, and 10 participants received placebo.

cynomolgus monkey CB2 [3] = molecular target: T1, cynomolgus monkey CB2 (Macaca fascicularis, UniProt G7NVV5); experiment: Forskolin-stimulated cAMP inhibition in stably transfected CHO cells; format: cell-based
T1 sequence (G7NVV5 1-360): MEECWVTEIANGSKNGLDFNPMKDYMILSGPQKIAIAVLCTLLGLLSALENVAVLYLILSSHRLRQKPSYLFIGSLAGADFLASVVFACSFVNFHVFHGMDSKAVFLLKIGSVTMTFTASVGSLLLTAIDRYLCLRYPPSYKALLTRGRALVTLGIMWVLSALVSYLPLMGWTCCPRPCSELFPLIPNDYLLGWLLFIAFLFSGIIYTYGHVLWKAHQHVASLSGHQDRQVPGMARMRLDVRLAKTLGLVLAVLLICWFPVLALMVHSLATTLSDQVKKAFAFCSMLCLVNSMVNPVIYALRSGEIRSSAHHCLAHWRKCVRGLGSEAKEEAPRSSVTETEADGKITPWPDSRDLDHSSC
Source text: Inhibition of cAMP accumulation in Chinese hamster ovary cells stably expressing recombinant CB2 was used to determine the functional potency of RO6868847 for different CB2 species and the selectivity over the closely related CB1. […] Table 4 summarizes the potency from different CB2 species.

[4] = system: 15-lipoxygenase, MAGL, diacylglycerol lipase, or FAAH enzymes; experiment: Functional cellular assays, enzymes of the endocannabinoid pathway; format: cell-based; settings: 10 μM in mouse
[5] = system: LPS-induced G-CSF, IFNγ, IL1β and TNFα levels in whole blood; experiment: In vitro LPS whole blood challenge assay; format: cell-based, human
Protocol: In order to explore any putative anti-inflammatory pharmacodynamic effect mediated by the CB2 agonist RO6868847 in a potentially clinically relevant human sample, an ex vivo whole blood lipopolysacharid (LPS) challenge assay was performed. Sodium heparin whole blood samples from healthy participants (n=8) were incubated in vitro for 1 hour at 37° C. with eight increasing concentrations of RO6868847 (0-30 μM) and exposed to LPS (100 ng/ml). After 18 h at 37° C. supernatants were analyzed for alterations in a range of chemokines and cytokines using Luminex-bead based multiplex ELISAs.
In addition, this in vitro LPS whole blood challenge assay was also used in samples from diabetic (Type I and Type II) and matched healthy participants (table 6). In order to explore whether the exposure (0-30 μM)-response relationship of RO6868847 and the respective alterations in cytokine levels may be changed by any chronic inflammatory conditions in diabetes (DM) and/or in elderly healthy participants (HP), who are anticipated to be the study population of the Phase II proof of concept Study.

[6] = system: 15-lipoxygenase, MAGL, diacylglycerol lipase, or FAAH enzymes; experiment: Functional cellular assays, enzymes of the endocannabinoid pathway; format: cell-based; settings: up to 500 μM in human targets
[7] = Solubility of drug substance; format: physicochemical
Protocol: For Phase I, film-coated tablets for oral administration containing 0.05, 0.75, 10, or 100 mg of RO6868847 drug substance were developed for clinical use. Three placebo film-coated tablets were formulated to match the active film-coated tablets in size and in appearance: one size to match the active 0.05 and 0.75 mg film-coated tablets and one size each to match the active 10 and 100 mg film-coated tablets.

[8] = system: 78 additional receptors and ion channels; experiment: Radioligand binding assays on additional receptors and ion channels
CB2 receptor on B-cells = molecular target: T2, CB2 receptor on B-cells (Homo sapiens, UniProt P34972); experiment: In vitro target engagement: CB2 surface expression on peripheral B cells in whole blood (flow cytometry); format: cell-based; settings: for Emax: read-out: Mean Emax ± SD (%)
T2 construct: B cells show a low but robust surface expression of CB2; endogenous in cells; host or cells: B cells in human whole blood (healthy participants, diabetic patients)
T2 sequence (P34972 whole entry): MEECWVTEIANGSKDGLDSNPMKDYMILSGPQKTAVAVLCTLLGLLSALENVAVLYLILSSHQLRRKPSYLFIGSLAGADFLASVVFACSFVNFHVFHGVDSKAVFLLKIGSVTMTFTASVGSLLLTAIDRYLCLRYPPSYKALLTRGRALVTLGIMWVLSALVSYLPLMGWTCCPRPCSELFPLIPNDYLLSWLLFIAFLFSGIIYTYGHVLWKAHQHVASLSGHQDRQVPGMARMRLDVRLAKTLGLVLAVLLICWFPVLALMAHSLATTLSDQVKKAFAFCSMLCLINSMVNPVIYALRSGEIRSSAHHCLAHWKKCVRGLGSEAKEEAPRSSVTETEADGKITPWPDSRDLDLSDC
Source text: To monitor target engagement by RO6868847 in humans, a flow cytometry assay was developed utilizing an in-house monoclonal anti-human CB2 antibody in combination with established blood cell markers (CD45, CD14, CD3, and CD19) (1078220). […] As with most GPCR agonists, RO6868847 is expected to trigger CB2 receptor internalization upon CB2 activation, resulting in decreased surface detection. In order to establish this measure as a surrogate target engagement biomarker, freshly isolated whole blood samples (n=9) from healthy participants were incubated in duplicates in vitro for 1 hour at 37° C. with eight different increasing concentrations of RO6868847 and were subsequently subjected to the flow cytometry assay (1078220).
The availability of this in vitro target engagement assay also enabled us to explore the target engagement—exposure response in blood samples obtained from patients with diabetic mellitus (Type 1 and Type 2) and healthy controls matched for age, gender and BMI (Table 6) (1097891). This population was selected as it is similar to the envisaged target patient population for the proof-of-concept Phase II trial, encompassing diabetic patients according to definition by the World Health Organization and/or the American Diabetes Association.

cynomolgus monkey CB2 [9] = molecular target: T1, cynomolgus monkey CB2; experiment: Radioligand binding to CB2, CHO cells
[10] = Study BP40387 Part 1 (SAD) pharmacokinetics, healthy participants; format: in vivo, human; settings: single and multiple dose, on average
[11] = single oral 0.75 mg, fasted, geo mean
[12] = single oral 3.0 mg, fasted, geo mean
[13] = single oral 10 mg, fasted, geo mean
[14] = single oral 30 mg, fasted, geo mean
[15] = single oral 100 mg, fasted, geo mean
[16] = single oral 300 mg, fasted, geo mean
[17] = diabetic patients and matched healthy participants

Compound Cn1nnnc1Cn1nnc2c(N3CC[C@H](O)C3)nc(C(C)(C)C)nc21 [RO6868847, (3S)-1-[5-tert-butyl-3-[(1-methyltetrazol-5-yl)methyl]triazolo[4,5-d]pyrimidin-7-yl]pyrrolidin-3-ol] has a Tmax ([1]; oral, Study BP40387, fasted conditions, across doses, read-out: median Tmax) of 1 to 4 h, a Tmax ([1]; oral, single dose 100 mg and 300 mg, fasted, read-out: Individual Tmax) of 1 to 6 h and a half-life ([1]; oral, single dose, range across doses, read-out: apparent terminal elimination half-life) of 6.95 to 18.5 h. It also gave a Tmax ([1]; po, 0.75 mg, single oral 0.75 mg, fasted, median, read-out: Tmax) of 1 h, a Tmax ([1]; po, 3 mg, single oral 3.0 mg, fasted, median, read-out: Tmax) of 1 h and a Tmax ([1]; po, 10 mg, single oral 10 mg, fasted, median, read-out: Tmax) of 1.75 h. It also gave a Tmax ([1]; po, 30 mg, single oral 30 mg, fasted, median, read-out: Tmax) of 1.5 h, a Tmax ([1]; po, 100 mg, single oral 100 mg, fasted, median, read-out: Tmax) of 1.75 h and a Tmax ([1]; po, 300 mg, single oral 300 mg, fasted, median, read-out: Tmax) of 3 h. The AUC [1, 11] was 112 ng·h/mL, the Cmax [1, 11] was 9.92 ng/mL and the half-life ([1]; single oral 0.75 mg, fasted, geo mean, read-out: t1/2 (converted)) was 6.89 h. For the same compound, the AUC [1, 12] was 435 ng·h/mL, the Cmax [1, 12] was 40 ng/mL and the half-life ([1]; single oral 3.0 mg, fasted, geo mean, read-out: t1/2 (converted)) was 7.99 h. The AUC [1, 13] was 972 ng·h/mL, the Cmax [1, 13] was 111 ng/mL and the half-life ([1]; single oral 10 mg, fasted, geo mean, read-out: t1/2 (converted)) was 6.95 h. For the same compound, the AUC [1, 14] was 3530 ng·h/mL, the Cmax [1, 14] was 355 ng/mL and the half-life ([1]; single oral 30 mg, fasted, geo mean, read-out: t1/2 (converted)) was 6.97 h. The AUC [1, 15] was 12500 ng·h/mL, the Cmax [1, 15] was 1120 ng/mL and the half-life ([1]; single oral 100 mg, fasted, geo mean, read-out: t1/2 (converted)) was 14.6 h. It also gave an AUC [1, 16] of 31400 ng·h/mL, a Cmax [1, 16] of 2500 ng/mL and a half-life ([1]; single oral 300 mg, fasted, geo mean, read-out: t1/2 (converted)) of 18.5 h. The “dose-proportionality of Cmax and AUC” value ([1]; doses beyond 100 mg) was “slightly less than dose-proportional”, the “dose-proportionality of Cmax and AUC” value ([1]; up to 100 mg) was “no pronounced deviations from dose-proportionality; also recorded: approximately dose-proportionally” and the “time dependence of pharmacokinetics” value ([2]; in vivo) was “absence of relevant PK time dependencies; also recorded: no evidence of time-dependent pharmacokinetics”. The “time to steady state” value ([2]; once-daily dosing) was “approximately after the second day of dosing; also recorded: approximately after the second day of treatment”, the “accumulation of Cmax and AUCtau” value ([2]; once-daily dosing, independent of dose) was “only minor accumulation” and the IC50 (cynomolgus monkey CB2 [3]; CHO cells) was 1.06 ± 0.08 nM. For the same compound, the Emax (cynomolgus monkey CB2 [3]; CHO, normalized to 10 μM CP55′940) was 94.6%, the “activity at endocannabinoid pathway enzymes” value [4] was “no activity” and the IC50 ([5]; Homo sapiens, DM, 3/9, read-out: IC50 (IL-1β)/μM) was 29.4 ± 24.1 µM. For the same compound, the IC50 ([5]; Homo sapiens, DM, 7/9, read-out: IC50 (IFNγ)/μM) was 6.91 ± 2.29 µM, the IC50 ([5]; Homo sapiens, HV, 3/8, read-out: IC50 (TNFα)/μM) was 7 ± 4.61 µM and the IC50 ([5]; Homo sapiens, HV, 5/8, read-out: IC50 (IL-1β)/μM) was 5.02 ± 4.58 µM. For the same compound, the IC50 ([5]; Homo sapiens, HV, 6/8, read-out: IC50 (IFNγ)/μM) was 10.9 ± 8.9 µM, the IC50 ([5]; Homo sapiens, Matched HVs, 4/8, read-out: IC50 (IFNγ)/μM) was 12.4 ± 4.19 µM and the EC50 ([5]; Homo sapiens, HV, curves fitted 5/8) was 7.97 ± 6.71 µM. The “G-CSF and TNFα levels post LPS” value [5, 17] was “an overall drug response in the explored exposure range could not be concluded”, the “IFNγ level post LPS” value [5, 17] was “dose-dependent attenuation of IFNγ” and the “chemokine and cytokine levels post LPS stimulation” value ([5]; healthy participants n=8, 0-30 μM, LPS 100 ng/ml, 18 h) was “decrease of IFNγ, IL1β, TNFα and elevation of G-CSF”. The “activity at endocannabinoid pathway enzymes” value [6] was “no activity”, the “solubility in aqueous solutions” value [7] was “slightly soluble” and the “solubility in organic solvents” value [7] was “moderate to good solubility”. For the same compound, the “selectivity for CB2” value [8] was “excellent selectivity for CB2”, the “Fold change vs HPs” value (CB2 receptor on B-cells; DM) was 1.8x and the Emax (CB2 receptor on B-cells; DM, n = 8) was 56.2 ± 11.7%. For the same compound, the “Fold change vs HPs” value (CB2 receptor on B-cells; Healthy Participants) was 1, the “CB2 surface expression on B-cells” value (CB2 receptor on B-cells; Healthy Participants, n = 9) was “concentration-dependent reduction of CB2 surface expression on B-cells” and the “Mean Emax ± SD (%)” value (CB2 receptor on B-cells; Healthy Participants, n = 9) was 55.0 ± 4.6 (n = 9) %. The Emax (CB2 receptor on B-cells; Healthy Participants, n = 9) was 55 ± 4.6%, the “Fold change vs HPs” value (CB2 receptor on B-cells; Matched Healthy) was 2.6 x and the Emax (CB2 receptor on B-cells; Matched Healthy, n = 8) was 55.7 ± 6.8%. The IC50 (CB2 receptor on B-cells; Mean IC50 (CB2 on B-cells) ± SD (nM), DM, n = 8, one outlier excluded) was 172 ± 82 nM, the IC50 (CB2 receptor on B-cells; Mean IC50 (CB2 on B-cells) ± SD (nM), Healthy Participants, n = 9, 1 hour at 37° C.) was 96.5 ± 27.1 nM and the IC50 (CB2 receptor on B-cells; Mean IC50 (CB2 on B-cells) ± SD (nM), Matched Healthy, n = 8) was 253 ± 206 nM. For the same compound, the “fold higher concentration/exposure required for similar CB2R target engagement” value (CB2 receptor on B-cells; diabetic and matched (elderly) healthy vs younger healthy participants) was 2-3 fold and ~3 fold, the “CB2 receptor internalization on the surface of B-cells” value (CB2 receptor on B-cells; [17]) was “dose-dependent CB2 receptor internalization” and the IC50 (CB2 receptor on B-cells; mean IC50 (TE), Healthy participants, 9 donors, converted) was 96.5 nM. For the same compound, the IC50 (cynomolgus monkey CB2 [9]) was 103 ± 17.2 nM, the Ki (cynomolgus monkey CB2 [9]; read-out: Ki ± SE) was 66.8 nM and the “Renal excretion, share of the dose administered” value [10] was “less than 5%”.
